Laboratory results taken from the NIST ThermoML archive (doi:10.1021/je900372v).
“And” between values parts separate entries of the source, which are not always exact repeats. Equal entries are not always repeated.

Details: Diaphragm manometer

[CH3][Sb]([CH3])[C](C)(C)C [tert-butyldimethylantimony]
Details | vapor or sublimation pressure
248.34 K, Crystal | 0.03829 kPa and 0.03817 kPa and 0.03826 kPa
253.33 K, Crystal | 0.05845 kPa and 0.05851 kPa and 0.05854 kPa
258.35 K, Crystal | 0.08805 kPa and 0.08784 kPa and 0.08807 kPa
263.35 K, Crystal | 0.1298 kPa and 0.1299 kPa
268.55 K, Crystal | 0.1898 kPa and 0.19 kPa
273.4 K, Crystal | 0.2687 kPa and 0.2685 kPa
278.29 K, Crystal | 0.374 kPa and 0.3741 kPa
283.32 K, Crystal | 0.5167 kPa and 0.5168 kPa and 0.5164 kPa
288.32 K, Liquid | 0.7023 kPa and 0.7022 kPa
293.29 K, Liquid | 0.9422 kPa and 0.9421 kPa and 0.942 kPa
298.29 K, Liquid | 1.251 kPa
303.28 K, Liquid | 1.642 kPa
308.27 K, Liquid | 2.131 kPa and 2.132 kPa

[CH3][Sb]([CH3])[CH3] [trimethylstibine]
Liquid
Details | vapor or sublimation pressure
249.24 K | 0.9742 kPa and 0.9744 kPa
250.24 K | 1.042 kPa
251.23 K | 1.113 kPa and 1.112 kPa
252.21 K | 1.186 kPa
253.21 K | 1.265 kPa and 1.264 kPa
258.19 K | 1.73 kPa
263.24 K | 2.345 kPa and 2.343 kPa
268.3 K | 3.134 kPa and 3.136 kPa
273.35 K | 4.143 kPa
278.36 K | 5.398 kPa and 5.399 kPa and 5.395 kPa
283.33 K | 6.941 kPa and 6.94 kPa and 6.938 kPa
288.27 K | 8.822 kPa and 8.821 kPa
290.71 K | 9.9 kPa and 9.899 kPa
293.24 K | 11.13 kPa
296.22 K | 12.74 kPa and 12.73 kPa
